From ChEMBL document CHEMBL4813943, “Hybrids of Small-Molecule CD4 Mimics with Polyethylene Glycol Units as HIV Entry Inhibitors” (J Med Chem, 2021)

How the values were obtained:
[1] = Cytotoxicity against human TZM-bl cells assessed as reduction in cell viability by Cell Titer-Glo assay; type: cell-based
[2] = target: Envelope glycoprotein gp160 (Human immunodeficiency virus 1) (UniProt Q6QLK5); experiment: Inhibition of HIV1 KP-5mvcR gp120 interaction with CD4 in human TZM-bl cells assessed as decrease in viral entry at 0.1 uM by […] assay relative to control; type: cell-based
Chain of Envelope glycoprotein gp160 (Human immunodeficiency virus 1) (Q6QLK5 1-814): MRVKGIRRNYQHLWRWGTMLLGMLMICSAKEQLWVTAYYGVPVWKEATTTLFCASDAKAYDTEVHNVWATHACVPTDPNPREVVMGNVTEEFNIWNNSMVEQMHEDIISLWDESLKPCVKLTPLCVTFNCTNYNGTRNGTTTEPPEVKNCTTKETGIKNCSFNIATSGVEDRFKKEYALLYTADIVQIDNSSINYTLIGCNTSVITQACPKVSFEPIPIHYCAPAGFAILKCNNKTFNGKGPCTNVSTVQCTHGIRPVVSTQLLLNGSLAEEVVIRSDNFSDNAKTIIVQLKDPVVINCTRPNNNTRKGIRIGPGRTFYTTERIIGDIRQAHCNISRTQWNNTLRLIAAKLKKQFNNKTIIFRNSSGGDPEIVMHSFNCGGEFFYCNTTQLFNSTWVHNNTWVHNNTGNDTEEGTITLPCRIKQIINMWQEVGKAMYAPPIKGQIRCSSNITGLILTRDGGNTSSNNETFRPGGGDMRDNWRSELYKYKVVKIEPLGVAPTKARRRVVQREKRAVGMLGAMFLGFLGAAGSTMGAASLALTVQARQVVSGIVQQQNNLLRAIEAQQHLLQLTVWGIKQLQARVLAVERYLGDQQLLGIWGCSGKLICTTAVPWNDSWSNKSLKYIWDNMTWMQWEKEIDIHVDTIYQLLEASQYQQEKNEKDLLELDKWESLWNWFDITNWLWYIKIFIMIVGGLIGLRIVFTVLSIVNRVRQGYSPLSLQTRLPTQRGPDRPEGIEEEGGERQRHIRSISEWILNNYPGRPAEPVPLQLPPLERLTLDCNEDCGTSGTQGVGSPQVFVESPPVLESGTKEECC

[3] = test system: Simian immunodeficiency virus; experiment: Potentiation of KD-247-induced viral neutralizing activity against SHIV KS2661 infected in human TZM-bl cells assessed as fold reduction in KD-247 IC50 for viral neutralization at 10 uM measured after 48 hrs by luciferase assay relative to KD-247; type: functional
[4] = Stability of the compound assessed as drug degradation at 10 umol measured after 5 mins by HPLC analysis; type: physicochemical; conditions: at 10 µmol, read-out: Drug degradation
[5] = Stability of the compound assessed as drug degradation at 10 umol measured after 1 mins by HPLC analysis; type: physicochemical; conditions: at 10 µmol, read-out: Drug degradation
[6] = Stability of the compound assessed as drug degradation at 10 umol measured after 25 mins by HPLC analysis; type: physicochemical; conditions: at 10 µmol, read-out: Drug degradation
[7] = Half life of the compound by HPLC analysis; type: physicochemical
[8] = Volume of distribution in rhesus monkey at 9 mg, IM measured upto 48.1 hrs by HPLC analysis; type: ADME, Macaca mulatta; conditions: in vivo
[9] = Acute toxicity in iv dosed rhesus monkey assessed as maximum tolerated dose; type: organism-based, Macaca mulatta; conditions: in vivo
[10] = Volume of distribution in rhesus monkey at 36 mg, IM measured upto 48.1 hrs by HPLC analysis; type: ADME, Macaca mulatta; conditions: in vivo
[11] = Cmax in rhesus monkey at 9 mg, IM measured upto 48.1 hrs by HPLC analysis; type: ADME, Macaca mulatta; design: route intramuscular, dose 9 mg, time <=48.1; conditions: in vivo
[12] = Cmax in rhesus monkey at 36 mg, IM measured upto 48.1 hrs by HPLC analysis; type: ADME, Macaca mulatta; design: route intramuscular, dose 36 mg, time <=48.1; conditions: in vivo
[13] = Half life in rhesus monkey at 18 mg, IM measured upto 48.1 hrs by HPLC analysis; type: ADME, Macaca mulatta; conditions: in vivo
[14] = Toxicity in rhesus monkey assessed as increase in pulse rate at 33.2 mg, iv measured within 25 mins; type: organism-based, Macaca mulatta; conditions: in vivo
[15] = Toxicity in rhesus monkey assessed as effect on body motion at 33.2 mg, iv measured within 25 mins; type: organism-based, Macaca mulatta; conditions: in vivo
[16] = Cmax in rhesus monkey at 33.2 mg, iv measured upto 72 hrs by HPLC analysis; type: ADME, organism-based, Macaca mulatta; design: route intravenous, dose 33.2 mg, time <=72; conditions: in vivo
[17] = Volume of distribution in rhesus monkey at 18 mg, IM measured upto 48.1 hrs by HPLC analysis; type: ADME, Macaca mulatta; conditions: in vivo
[18] = Half life in rhesus monkey at 33.2 mg, iv measured upto 72 hrs by HPLC analysis; type: ADME, organism-based, Macaca mulatta; conditions: in vivo
[19] = Half life in rhesus monkey at 36 mg, IM measured upto 48.1 hrs by HPLC analysis; type: ADME, Macaca mulatta; conditions: in vivo
[20] = Volume of distribution in rhesus monkey at 33.2 mg, IV measured upto 72 hrs by HPLC analysis; type: ADME, Macaca mulatta; conditions: in vivo
[21] = Cmax in rhesus monkey at 18 mg, IM measured upto 48.1 hrs by HPLC analysis; type: ADME, Macaca mulatta; design: route intramuscular, dose 18 mg, time <=48.1; conditions: in vivo
[22] = Half life in rhesus monkey at 9 mg, IM measured upto 48.1 hrs by HPLC analysis; type: ADME, Macaca mulatta; conditions: in vivo
[23] = Acute toxicity in rhesus monkey assessed as animal survival at 24 mg/kg, iv measured after 24 hrs; type: organism-based, Macaca mulatta; conditions: in vivo
[24] = Acute toxicity in rhesus monkey assessed as effect on blood oxygen levels at 24 mg/kg, iv measured after 24 hrs; type: organism-based, Macaca mulatta; conditions: in vivo
[25] = Initial drug concentration in rhesus monkey blood at 24 mg/kg, iv measured upto 6 hrs by HPLC analysis; type: ADME, organism-based, Macaca mulatta
[26] = Volume of distribution in rhesus monkey at 24 mg/kg, iv measured upto 6 hrs by HPLC analysis; type: ADME, organism-based, Macaca mulatta; conditions: in vivo
[27] = Half life in rhesus monkey at 24 mg/kg, iv measured upto 6 hrs by HPLC analysis; type: ADME, organism-based, Macaca mulatta; conditions: in vivo
[28] = Acute toxicity in rhesus monkey assessed as effect on pulse rate at 24 mg/kg, iv measured after 24 hrs; type: organism-based, Macaca mulatta; conditions: in vivo
[29] = Acute toxicity in rhesus monkey assessed as decrease in blood oxygen level at 24 mg/kg, iv measured within 15 mins; type: organism-based, Macaca mulatta; conditions: in vivo, 0.25 h
[30] = Acute toxicity in rhesus monkey assessed as increase in pulse rate at 24 mg/kg, iv measured within 15 mins; type: organism-based, Macaca mulatta; conditions: in vivo, 0.25 h

## COCCOCCOCCOCCOCCOCCOCCOCCOCCOCCOCCOCCOCCOCCOCCOCCOCCOCCOCCOCCOCCOCCOCCOCCNC(=O)CCC(=O)N[C@@H](CCCNC(=N)N)C(=O)NCCN1CCC(NC(=O)C(=O)Nc2ccc(Cl)cc2)CC12CCCCC2 (some centres undefined)
[1]
  CC50: 40 µM
[2]
  inhibition: 65%

## N=C(N)NCCCCC(=O)NCCN1CCC(NC(=O)C(=O)Nc2ccc(Cl)cc2)CC12CCCCC2 (centres undefined)
[1]
  CC50: 65 µM

## COCCOCCOCCOCCOCCOCCOCCOCCOCCOCCOCCOCCNC(=O)CCC(=O)N[C@@H](CCCNC(=N)N)C(=O)NCCN1CCC(NC(=O)C(=O)Nc2ccc(Cl)cc2)CC12CCCCC2 (some centres undefined) [listing 1 of 2 here]
[1]
  CC50: > 100 µM
[3]
  fold change (FC): 20

## N=C(N)NCC(=O)NCCCC[C@H](NC(=N)N)C(=O)NCCN1CCC(NC(=O)C(=O)Nc2ccc(Cl)cc2)CC12CCCCC2 (some centres undefined)
[1]
  CC50: 42 µM

## CCCCCCCCCCCCCCCCNC(=O)CCC(=O)OC(CCCN)C(=O)NCCN1CCC(NC(=O)C(=O)Nc2ccc(Cl)cc2)CC12CCCCC2 (centres undefined)
[1]
  CC50: 5.7 µM

## N=C(N)NCCCCCCCC(=O)NCCCC[C@H](NC(=N)N)C(=O)NCCN1CCC(NC(=O)C(=O)Nc2ccc(Cl)cc2)CC12CCCCC2 (some centres undefined)
[1]
  CC50: 44 µM

## COCCOCCOCCOCCOCCNC(=O)CCC(=O)OC(CCCNS(=O)(=O)c1ccc([N+](=O)[O-])cc1)C(=O)NCCN1CCC(NC(=O)C(=O)Nc2ccc(Cl)cc2)CC12CCCCC2 (centres undefined)
[1]
  CC50: 174 µM

## N=C(N)NCCCCCCCCCCC(=O)NCCCC[C@H](NC(=N)N)C(=O)NCCN1CCC(NC(=O)C(=O)Nc2ccc(Cl)cc2)CC12CCCCC2 (some centres undefined)
[1]
  CC50: 15 µM

## N=C(N)NCCCC[C@H](NC(=N)N)C(=O)NCCN1CCC(NC(=O)C(=O)Nc2ccc(Cl)cc2)CC12CCCCC2 (some centres undefined)
[1]
  CC50: 46 µM

## COCCOCCOCCOCCOCCNC(=O)CCC(=O)OC(CCCNC(=N)N)C(=O)NCCN1CCC(NC(=O)C(=O)Nc2ccc(Cl)cc2)CC12CCCCC2 (centres undefined) [listing 1 of 2 here]
[4]
  degraded at 5 min, 10 umol: 0%
[5]
  degraded at 1 min, 10 umol: 0%
[6]
  degraded at 25 min, 10 umol: 20%

## N=C(N)NCCCCCCCC(=O)NCCN1CCC(NC(=O)C(=O)Nc2ccc(Cl)cc2)CC12CCCCC2 (centres undefined)
[1]
  CC50: > 300 µM

## COCCOCCOCCOCCOCCNC(=O)CCC(=O)N[C@@H](CCCNC(=N)N)C(=O)NCCN1CCC(NC(=O)C(=O)Nc2ccc(Cl)cc2)CC12CCCCC2 (some centres undefined)
[1]
  CC50: > 100 µM

## CCCCCCCCCCCCCCCCNC(=O)CCC(=O)OC(CCCNC(=N)N)C(=O)NCCN1CCC(NC(=O)C(=O)Nc2ccc(Cl)cc2)CC12CCCCC2 (centres undefined)
[1]
  CC50: 17 µM

## COCCOCCOCCOCCOCCNC(=O)CCC(=O)OC(CCCNC(=N)N)C(=O)NCCN1CCC(NC(=O)C(=O)Nc2ccc(Cl)cc2)CC12CCCCC2 (centres undefined) [listing 2 of 2 here]
[1]
  CC50: 109 µM
[7]
  half-life: 126 min

## N=C(N)NCCCCC(=O)NCCCC[C@H](NC(=N)N)C(=O)NCCN1CCC(NC(=O)C(=O)Nc2ccc(Cl)cc2)CC12CCCCC2 (some centres undefined)
[1]
  CC50: 62 µM

## COCCOCCOCCOCCOCCOCCOCCOCCOCCOCCOCCOCCNC(=O)CCC(=O)N[C@@H](CCCNC(=N)N)C(=O)NCCN1CCC(NC(=O)C(=O)Nc2ccc(Cl)cc2)CC12CCCCC2.O=C(O)C(F)(F)F.O=C(O)C(F)(F)F (some centres undefined)
[8]
  Vd: 114 mL
[9]
  MTD: 3.78 mg/kg
[10]
  Vd: 200 mL
[11]
  Cmax: 56.4 µM
[12]
  Cmax: 128 µM
[13]
  half-life: 58.9 min
[14]
  Activity: Toxic
[15]
  Activity: Toxic
[16]
  Cmax: 39.5 µM
[17]
  Vd: 215 mL
[18]
  t1/2: 107.4 min
[19]
  half-life: 86.4 min
[20]
  Vd: 592 mL
[21]
  Cmax: 59.4 µM
[22]
  half-life: 47.6 min

## COCCOCCOCCOCCOCCOCCOCCOCCOCCOCCOCCOCCNC(=O)CCC(=O)N[C@@H](CCCNC(=N)N)C(=O)NCCN1CCC(NC(=O)C(=O)Nc2ccc(Cl)cc2)CC12CCCCC2 (some centres undefined) [listing 2 of 2 here]
[2]
  inhibition: 50%

## CCCCCCCCCCCCCCCCNC(=O)CCC(=O)OC(CCCNS(=O)(=O)c1ccc([N+](=O)[O-])cc1)C(=O)NCCN1CCC(NC(=O)C(=O)Nc2ccc(Cl)cc2)CC12CCCCC2 (centres undefined)
[1]
  CC50: > 300 µM

## N=C(N)NCCCCCCCCCCC(=O)NCCN1CCC(NC(=O)C(=O)Nc2ccc(Cl)cc2)CC12CCCCC2 (centres undefined)
[1]
  CC50: 1.1 µM

## CC1(C)CC(NC(=O)C(=O)Nc2ccc(Cl)cc2)CC(C)(C)N1
[1]
  CC50: 132 µM

## COCCOCCOCCOCCOCCNC(=O)CCC(=O)OC(CCCN)C(=O)NCCN1CCC(NC(=O)C(=O)Nc2ccc(Cl)cc2)CC12CCCCC2 (centres undefined)
[1]
  CC50: 81 µM

## N=C(N)NCCCCC(=O)NCCN1CCC(NC(=O)C(=O)Nc2ccc(Cl)cc2)CC12CCCCC2.O=C(O)C(F)(F)F.O=C(O)C(F)(F)F (centres undefined)
[23]
  Activity: Non-Toxic
[9]
  MTD: 24 mg/kg
[24]
  Activity: Non-Toxic
[25]
  C0 at 6 h: 23.3 µM
[26]
  Vd: 10.8 L
[27]
  half-life: 31 min
[28]
  Activity: Non-Toxic
[29]
  Activity: Toxic
[30]
  Activity: Toxic
